These antisense oligonucleotides have a phosphorothioate backbone; sugars and methylation of C are not fully specified.
Biological target: IKBKB
Conditions: ASO
Also: test concentration or dose not given here.

Row | Sequence | remaining target (mRNA or protein) (fraction of control)
1 | AATGTCACTCAGCAAGGT | 0.25
2 | ACTCAAAGGCCAGGGTGC | 0.59
3 | ACTGGTTCAGGTACTTCC | 0.88
4 | ACTTCTGCTGCTCCAGTA | 0.58
5 | AGGGTGCAGAGGTTATGT | 0.48
6 | AGTTTATCTGATGTGATC | 0.8
7 | ATCCTAGGTCAATAATTT | 0.97
8 | CACAGGGTAGGTGTGGAT | 0.6
9 | CAGCTGTGCTCTTCTTCT | 0.75
10 | CCCCACATGTCTGCGTTG | 0.12
11 | CGTGAAACTCTGGTCTTG | 0.48
12 | CTCAGCTGGAAGAAGGCG | 0.4
13 | CTCGAAGCTCTGAATTGC | 0.48
14 | CTGAGTGGCAGGCTTATC | 0.28
15 | CTGGGATGCCCGTGTCCT | ≥ 1
16 | CTGTCCCAAGGCGCTCTT | 0.42
17 | CTTCGCTAACAACAATGT | ≥ 1
18 | CTTCTGCTTGCAAACCAC | 0.82
19 | GACAACAGTCTTCTCATC | 0.77

Row | Sequence | remaining target (mRNA or protein) (fraction of control)
20 | GAGGAGATTCATCATGGC | 0.97
21 | GCCAGGACACTGTTAAGA | 0.43
22 | GCTCAGGTAAGCTGTTGG | 0.45
23 | GCTTTAGATCCCGATGGA | 0.46
24 | GGAGAGGCAGCTGTTGTT | 0.43
25 | GGGAAGGTGACCAGCTCA | 0.3
26 | GGGCTCTTGAAGGATACA | 0.39
27 | GGGCTTCCACTGACAGGA | 0.18
28 | GTCAGCCTTCTCATGATC | ≥ 1
29 | GTTCCATTCAAGTCTTCG | 0.78
30 | TCCTGTACAGCTCCCTTG | 0.13
31 | TGAGTCTCATAGGTGATT | ≥ 1
32 | TGATGGCAATCTGCTCAC | ≥ 1
33 | TGCACGGGCTGCCAGTTG | 0.46
34 | TGTAAGTCCACAATGTCG | 0.61
35 | TGTATTAACCTCTGTTCT | ≥ 1
36 | TTAACTTGCCGTCTGAAA | 0.8
37 | TTAAGATGTCATCCAGGG | ≥ 1
38 | TTCAAGATATGAACCAGC | 0.54

Biological target: RHOG
Conditions: ASO

Row | Sequence | remaining target (mRNA or protein) (fraction of control)
39 | GACCTGGTGCCCCTCCCG | 0.65
40 | GAGGGCAGAGGTTAGAGA | 0.79
41 | GCAGCCTCCAAGCCAAGT | 0.58
42 | GCATCGTGGGTGCAGTTG | 0.53
43 | GCGCGCTGTAATTGTCGA | 0.64
44 | GGCAGTGCCTCCTCTCTC | 0.65
45 | GGGTCCAACCTTGGCTTG | 0.42
46 | GGGTGTCAGGCTGGGCTC | 0.85
47 | GGTTCACTGTGCGCCCGT | 0.84
48 | GTAGCGCACAGCGTGGAT | 0.65
49 | GTCAGCAAATGCGTAAGG | 0.76
50 | GTCAGTAGCGGAAAATGG | ≥ 1
51 | GTCCCACAGGTTCAGGTT | 0.69
52 | GTGCAGTTGCTGTAGTGA | 0.9
53 | TCTTCTGGACCCCTCTGG | 0.64
54 | TGGAGAAGGGAGAGAGCA | 0.68
55 | TGTACGGAGGCGGTCATA | 0.63
56 | TTGTGTAGCAGATGAGCA | 0.65

Reference: the OligoGym collection
